These results are taken from PubChem BioAssay (NCI).

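Five compound concentrations were applied to cells in 96-well plates for 48 hours; endpoints were derived by simple linear interpolation of the resulting dose-response curve. TGI denotes the concentration required for complete inhibition of growth.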

What all share (experiment): NCI anticancer screen, dose series, 48 h
Experiment [1] deals with CAKI-1 renal.
Experiment [2] has as its system SN12C renal.
In experiment [3] the test system is SNB-19 CNS.
In experiment [4] the test system is LOX IMVI melanoma.
Experiment [5] deals with HS 578T breast.
The test system of experiment [6] is A498 renal.
For experiment [7], the system named is EKVX NSCLC.
Experiment [8] concerns T-47D breast.
The subject of experiment [9] is MDA-N.
Experiment [10] has as its system NCI-H522 lung.
Experiment [11] relates to UACC-257 melanoma.
Experiment [12] concerns SW-620 colon.
Experiment [13] relates to MCF7 breast.
Experiment [14] concerns PC-3 prostate.
The subject of experiment [15] is K-562 leukemia.
Experiment [16] deals with CCRF-CEM leukemia.
The test system of experiment [17] is BT-549 breast.
Experiment [18] has as its system SR leukemia.

Regarding `S=C1NC2=C(CSC/C2=C\c2cccc(Br)c2)C(c2cccc(Br)c2)N1` (stereo not drawn), the TGI in experiment [1], in [2], in experiment [3], in experiment [4], in experiment [5] and in experiment [6] was greater than 100 µM each time. Moreover, the TGI in experiment [7], in [8], in experiment [9], in [10], in [11] and in experiment [12] was greater than 100 µM in each case. In addition, the TGI in experiment [13], in [14], in [15] and in [16] was greater than 100 µM in each case.

`C=C1CC(C#N)(C#N)[C@H]2C3CCCC3C[C@@H]12` (stereo partly drawn) (tested in a mixture with another compound): the TGI in [2] is 30.5 µM; in [3], 67.4 µM; in [5], greater than 100 µM; in experiment [6], 48 µM; in experiment [7], 98.4 µM; in experiment [8], greater than 100 µM. For the same compound, the TGI stood at 56.8 µM in [17]; 53.6 µM in experiment [18]; 29.7 µM in experiment [12]; 29.8 µM in experiment [13]; 97.4 µM in [14]; 82.8 µM in experiment [15].

With `CC(O)CNC(=O)C(C)Oc1ccc(OCC2CCCCC2)cc1` (stereo not drawn), the TGI in experiment [2], in experiment [3], in experiment [4], in [6], in [10] and in [11] was greater than 100 µM each time. The TGI in experiment [15] and in experiment [16] was greater than 100 µM in each case.

Take `OC[C@H]1O[C@@H]2O[C@@](COCc3ccccc3)([C@H](OCc3ccccc3)[C@H]2O)[C@@H]1OCc1ccccc1`: the TGI in experiment [1] stood at 29.8 µM; in experiment [2], 29.2 µM; in [3], 32.4 µM; in [4], 32.2 µM; in experiment [5] it was 31.7 µM; in [6], 32.1 µM. In addition, the TGI in experiment [7] amounted to 28 µM; in experiment [8], 33 µM; in experiment [17], 37.2 µM; in experiment [18], 5.83 µM; in experiment [10], 31.6 µM; in [11], 32.2 µM. The TGI in [12] was 38.6 µM; in experiment [13] it was 38.8 µM; in experiment [14], 28 µM; in [15] it was 25.2 µM; in [16] it was 35.4 µM.

`O=C1OCC/C1=N/O`: the TGI in experiment [2], in experiment [6], in [7], in experiment [18], in experiment [10] and in experiment [11] was greater than 100 µM throughout. Moreover, the TGI in experiment [12], in experiment [15] and in experiment [16] was greater than 100 µM throughout.

In the case of `CCCNc1ncnc2c1ncn2C`, the TGI in experiment [1] was greater than 100 µM; in [2], 98.2 µM; in [3] it was greater than 100 µM; in experiment [4], greater than 100 µM; in experiment [6] it was 95.1 µM; in experiment [7] it was greater than 100 µM. The TGI in experiment [8], in [9], in [10], in experiment [11], in experiment [12] and in [13] was greater than 100 µM each time. Also, the TGI in experiment [14], in experiment [15] and in [16] was greater than 100 µM throughout.

With `CCOc1cc(/C=C2/C(C)=NN(c3cccc(Cl)c3)/C2=N/c2nc3ccccc3s2)ccc1O`, the TGI in experiment [4] is greater than 100 µM; in experiment [5], 68.6 µM; in [6], 56.9 µM; in experiment [7], greater than 100 µM; in experiment [8], greater than 100 µM; in [18] it was 81.1 µM. Also, the TGI in experiment [10] was 52.7 µM; in [11], 61.6 µM; in experiment [12], greater than 100 µM; in experiment [13] it was 81.8 µM; in [14], 43.5 µM; in experiment [15], greater than 100 µM. Moreover, the TGI in experiment [16] was greater than 100 µM.

With `CC1=Cc2cccc(C)c2C(=O)C1=O`, the TGI in experiment [1] was 32.5 µM; in [2], 37.2 µM; in experiment [3], 45.3 µM; in experiment [4], 21.5 µM; in [6] it was 30.9 µM; in experiment [7] it was 24.5 µM. For the same compound, the TGI in experiment [10] is 9.87 µM; in [11], 4.72 µM; in [12], 10.3 µM.

With `O=C1C=C/C(=N\N=C(c2ccccc2)c2ccccc2)O1`, the TGI in experiment [1], in experiment [2], in experiment [4], in [7], in experiment [8] and in experiment [9] was greater than 10 µM throughout. For the same compound, the TGI in experiment [18], in [11], in [12], in experiment [13], in [14] and in [15] was greater than 10 µM throughout. Further, the TGI in experiment [16] is greater than 10 µM.

Consider `Cc1c(/C=N\NC(=S)NCCNC(=S)N/N=C\c2c(C)n(C)n(-c3ccccc3)c2=O)c(=O)n(-c2ccccc2)n1C`, for which the TGI in [1], in [3], in [5], in [6], in [7] and in experiment [8] was greater than 100 µM in each case. The TGI in experiment [17], in [18], in experiment [11], in [12] and in experiment [14] was greater than 100 µM each time.
